Data reported in patent publication US20120184583A1, “MODULATORS OF ATP-BINDING CASSETTE TRANSPORTERS” (VERTEX PHARMACEUTICALS INCORPORATED, priority 2003, published 2012).

Key:
[1] = molecular target: T1, ΔF508-CFTR stably expressed in NIH3T3 cells (Homo sapiens, UniProt P13569, DEL508-508); assay: Membrane potential optical (FRET/VIPR) assay for ΔF508-CFTR potentiation; assay type: cell-based; conditions: for Emax: NIH3T3, read-out: % Efficacy (relative modulating efficacy in comparison with genistein), normalized to peak genistein response
T1 construct: expressed in transfected cells
T1 sequence (P13569 with tags, fused parts or gaps DEL508-508): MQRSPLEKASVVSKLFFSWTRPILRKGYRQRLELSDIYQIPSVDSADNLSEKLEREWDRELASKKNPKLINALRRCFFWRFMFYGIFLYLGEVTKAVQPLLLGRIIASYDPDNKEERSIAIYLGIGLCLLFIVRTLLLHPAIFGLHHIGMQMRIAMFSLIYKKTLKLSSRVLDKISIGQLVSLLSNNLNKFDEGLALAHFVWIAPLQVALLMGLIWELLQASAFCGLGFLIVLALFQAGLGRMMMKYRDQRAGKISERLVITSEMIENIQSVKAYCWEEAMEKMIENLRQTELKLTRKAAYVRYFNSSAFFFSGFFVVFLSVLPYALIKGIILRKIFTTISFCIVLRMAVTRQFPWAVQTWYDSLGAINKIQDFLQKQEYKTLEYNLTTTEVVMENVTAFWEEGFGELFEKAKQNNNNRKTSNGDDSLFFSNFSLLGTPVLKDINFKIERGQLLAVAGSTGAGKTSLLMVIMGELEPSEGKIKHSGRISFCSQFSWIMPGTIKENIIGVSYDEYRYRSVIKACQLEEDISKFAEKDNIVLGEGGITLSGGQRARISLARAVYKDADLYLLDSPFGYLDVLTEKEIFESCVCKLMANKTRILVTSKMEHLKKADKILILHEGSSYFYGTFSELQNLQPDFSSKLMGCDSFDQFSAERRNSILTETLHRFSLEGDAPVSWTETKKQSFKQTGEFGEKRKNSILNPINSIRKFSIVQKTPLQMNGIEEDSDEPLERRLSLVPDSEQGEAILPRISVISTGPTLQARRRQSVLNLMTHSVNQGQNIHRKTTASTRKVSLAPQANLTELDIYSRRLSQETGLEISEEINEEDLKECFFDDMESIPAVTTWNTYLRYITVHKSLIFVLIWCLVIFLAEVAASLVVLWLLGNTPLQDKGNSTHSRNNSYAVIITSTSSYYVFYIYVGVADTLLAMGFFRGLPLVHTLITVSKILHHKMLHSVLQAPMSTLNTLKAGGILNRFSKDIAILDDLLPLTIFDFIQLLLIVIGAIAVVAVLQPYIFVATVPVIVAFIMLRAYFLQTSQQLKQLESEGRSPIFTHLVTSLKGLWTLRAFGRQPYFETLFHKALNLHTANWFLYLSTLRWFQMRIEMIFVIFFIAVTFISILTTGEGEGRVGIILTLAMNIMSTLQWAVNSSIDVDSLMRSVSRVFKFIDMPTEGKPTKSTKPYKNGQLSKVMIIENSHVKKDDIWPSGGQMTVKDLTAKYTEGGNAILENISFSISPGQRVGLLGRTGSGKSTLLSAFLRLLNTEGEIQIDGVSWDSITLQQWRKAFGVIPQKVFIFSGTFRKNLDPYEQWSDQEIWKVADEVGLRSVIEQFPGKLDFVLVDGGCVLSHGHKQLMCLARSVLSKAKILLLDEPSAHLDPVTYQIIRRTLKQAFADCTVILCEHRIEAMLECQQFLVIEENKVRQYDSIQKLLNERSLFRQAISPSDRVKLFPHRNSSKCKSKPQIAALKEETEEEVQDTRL
Excerpt: Membrane potential optical methods for assaying ΔF508-CFTR potentiation properties of compounds.
These voltage sensitive assays are based on the change in fluorescence resonant energy transfer (FRET) between the membrane-soluble, voltage-sensitive dye, DiSBAC2(3), and a fluorescent phospholipid, CC2-DMPE, which is attached to the outer leaflet of the plasma membrane and acts as a FRET donor. Changes in membrane potential (Vm) cause the negatively charged DiSBAC2(3) to redistribute across the plasma membrane and the amount of energy transfer from CC2-DMPE changes accordingly. The changes in fluorescence emission were monitored using VIPR™ II, which is an integrated liquid handler and fluorescent detector designed to conduct cell-based screens in 96- or 384-well microtiter plates.
To identify potentiators of ΔF508-CFTR, a double-addition HTS assay format was developed (FIG. 1A). During the first addition, a Cl^−-free medium with or without test compound was added to each well. After 22 sec, a second addition of Cl^−-free medium containing 2-10 μM forskolin was added to activate ΔF508-CFTR. The extracellular Cl^− concentration following both additions was 28 mM, which promoted Cl^− efflux in response to ΔF508-CFTR activation and the resulting membrane depolarization was optically monitored using the FRET-based voltage-sensor dyes. The double-addition format has several advantages. First, it enables separation of compounds that act independently of forskolin-activated ΔF508-CFTR. Second, it allows compounds that act from the cytoplasmic surface of the channel to cross the plasma membrane and take effect. Lastly, fluorescent changes that arise from test compound addition alone can be identified.
High-throughput assay format for identifying potentiators of ΔF508-CFTR stably expressed in NIH3T3 cells.
FIG. 1A: Double-addition assay format in which Cl^−-free medium was added with or without the test compound prior to forskolin addition. The cells were incubated at 27° C. for 16-24 hr prior to use.
• Bath Solution #1: (in mM)NaCl 160, KCl 4.5, CaCl2 2, MgCl2 1, HEPES 10, pH 7.4 with NaOH. • Chloride-free bath solution: Chloride salts in Bath Solution #1 are substituted with gluconate salts. • CC2-DMPE: Prepared as a 10 mM stock solution in DMSO and stored at −20° C. • DiSBAC2(3): Prepared as a 10 mM stock in DMSO and stored at −20° C.
NIH3T3 mouse fibroblasts stably expressing ΔF508-CFTR are used for optical measurements of membrane potential. The cells are maintained at 37° C. in 5% CO2 and 90% humidity in Dulbecco's modified Eagle's medium supplemented with 2 mM glutamine, 10% fetal bovine serum, 1×NEAA, β-ME, 1×pen/strep, and 25 mM HEPES in 175 cm^2 culture flasks. For all optical assays, the cells were seeded at 30,000/well in 384-well matrigel-coated plates and cultured for 2 hrs at 37° C. before culturing at 27° C. for 24 hrs.

[2] = molecular target: T2, ΔF508-CFTR expressed in FRT epithelial cells (Homo sapiens, UniProt P13569, DEL508-508); assay: Ussing chamber assay, short-circuit current in FRT epithelia; assay type: cell-based
T2 construct: expressed in transfected cells; host or cells: Fisher rat epithelial (FRT) cells, vector-infected
T2 sequence (P13569 with tags, fused parts or gaps DEL508-508): as above
Protocol: FRT^ΔF508-CFTR epithelial cells grown on Costar Snapwell cell culture inserts were mounted in an Ussing chamber (Physiologic Instruments, Inc., San Diego, Calif.), and the monolayers were continuously short-circuited using a Voltage-clamp System (Department of Bioengineering, University of Iowa, Iowa, and, Physiologic Instruments, Inc., San Diego, Calif.). Transepithelial resistance was measured by applying a 2-mV pulse. […] Typical protocol utilized a basolateral to apical membrane Cl^− concentration gradient. To set up this gradient, normal ringers was used on the basolateral membrane and was permeabilized with nystatin (360 μg/ml), whereas apical NaCl was replaced by equimolar sodium gluconate (titrated to pH 7.4 with NaOH) to give a large Cl concentration gradient across the epithelium. All experiments were performed 30 min after nystatin permeabilization. The solutions were maintained at 27° C. and bubbled with air. The electrode offset potential and fluid resistance were corrected using a cell-free insert. Under these conditions, the current reflects the flow of Cl^− through ΔF508-CFTR expressed in the apical membrane. The ISC was digitally acquired using an MP100A-CE interface and AcqKnowledge software (version 3.2.6; BIOPAC Systems, Santa Barbara, Calif.). Forskolin (10 μM) and all test compounds were added to both sides of the cell culture inserts. […]

Row | Compound | Emax [1] [%] | also measured
1 | COc1cccc(O)c1-c1cc(-c2ccccc2)n[nH]1 [IA-3] | 35 to 75 | 
2 | Cc1ccc(O)c(-c2cc(-c3ccc(-c4cccc(C(F)(F)F)c4)o3)n[nH]2)c1 [IA-7] | 35 to 75 | 
3 | COc1ccc(-c2cc(-c3ccccc3O)n[nH]2)cc1OC [IA-1] | 35 to 75 | 
4 | O=c1c(-c2ccc(O)cc2)coc2cc(O)cc(O)c12 [genistein, reference compound] |  | effect on forskolin-induced membrane depolarization [1]: augmented; membrane potential response in the absence of forskolin addition ([1]; data not shown): no response; potentiation of the forskolin-induced response ([1]; optical assay, n=35): 72.8±7.2%; ISC potentiated to ([2]; genistein 50 μM added after forskolin 10 μM, n=8): 21±1.5 μA/cm^2; stimulation of ISC when applied prior to forskolin addition ([2]; no forskolin, data not shown): did not stimulate
5 | Fc1ccccc1-c1cc(-c2ccccc2F)[nH]n1 [I-6] | 35 to 75 | 
6 | COc1ccc(O)c(-c2cc(-c3ccccc3)[nH]n2)c1 [IA-18] | 35 to 75 | 
7 | COc1ccc(O)c(-c2cc(-c3ccccc3Cl)[nH]n2)c1 [IA-55] | 35 to 75 | 
8 | Oc1cc(F)ccc1-c1cc(-c2ccccc2)[nH]n1 [IA-70] | 35 to 75 | 
9 | FC(F)(F)Oc1ccc(-c2cc(-c3ccccc3)n[nH]2)cc1 [I-16] | 35 to 75 | 
10 | Cc1ccccc1-c1cc(-c2ccccc2O)n[nH]1 [IA-24] | 35 to 75 | 
11 | CC(=O)Nc1cccc(-c2cc(-c3cc(C)ccc3O)[nH]n2)c1 [IA-40] | 35 to 75 | 
12 | Oc1ccccc1-c1cc(-c2ccc(F)cc2)[nH]n1 [IA-8] | 35 to 75 | 
13 | COc1ccc(-c2cc(-c3cc(C)ccc3O)n[nH]2)c(F)c1 [IA-99] | 35 to 75 | 
14 | CCOc1ncccc1-c1cc(-c2ccccc2O)[nH]n1 [IA-101] | 35 to 75 | 
15 | O=[N+]([O-])c1ccccc1-c1cc(-c2cc(Cl)ccc2O)n[nH]1 [IA-52] | > 75 | 
16 | Cc1ccc(O)c(-c2cc(-c3cccc([N+](=O)[O-])c3)n[nH]2)c1 [IA-87] | 35 to 75 | 
17 | Cc1ccc(O)c(-c2cc(-c3ccccc3[N+](=O)[O-])[nH]n2)c1 [IA-5] | > 75 | 
18 | Fc1ccccc1-c1cc(-c2cccc(OC(F)(F)F)c2)[nH]n1 [I-18] | 35 to 75 | 
19 | Oc1ccc(Cl)cc1-c1cc(-c2ccc(C(F)(F)F)cc2)[nH]n1 [IA-90] | 35 to 75 | 
